Experimental data published in patent publication US9867833B2, “Serine/threonine kinase inhibitors” (GENENTECH, INC., priority 2013, dated 2018).

Molecular target: human ERK-2 (Mitogen Activated Kinase 1) (Homo sapiens (Human), UniProt P28482)
Experiment: ERK-2 Enzymatic Assay
Format: biochemical
Details: human ERK-2 enzyme 5 nM, 25 μM ATP, S/T17 peptide substrate; isomer = configuration of CR2R3
Description: Compounds were tested in an enzymatic assay using human ERK-2 (Mitogen Activated Kinase 1), recombinantly expressed as an n-terminal 6-His fusion protein in E. coli and corresponding to aa 8-360. […] Test compounds were diluted in DMSO in 3-fold serial dilutions at 100× final concentrations. […] The data collected from each well was fit to a straight line, and the resulting rates were used to calculate percent of control. Percent of control was plotted against compound concentration, and IC50 values were determined using a four-parameter fit.

Sequence of human ERK-2 (Mitogen Activated Kinase 1) (P28482 8-360): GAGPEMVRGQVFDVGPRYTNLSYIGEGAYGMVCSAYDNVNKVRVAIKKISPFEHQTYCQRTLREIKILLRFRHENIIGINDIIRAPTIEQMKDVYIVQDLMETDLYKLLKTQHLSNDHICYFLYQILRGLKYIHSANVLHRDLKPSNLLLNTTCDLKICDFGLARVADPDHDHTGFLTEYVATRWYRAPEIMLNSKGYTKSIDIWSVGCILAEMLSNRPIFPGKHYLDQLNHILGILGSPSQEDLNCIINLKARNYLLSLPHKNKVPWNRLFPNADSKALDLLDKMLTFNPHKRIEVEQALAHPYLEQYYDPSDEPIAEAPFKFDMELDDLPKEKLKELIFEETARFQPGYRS

Row | SMILES | IC50 [nM]
1 | Cn1nccc1Nc1nccc(-c2cc3n4c(nnc4c2)[C@H](Oc2cncc(F)c2)CCO3)n1 [(R) I-91, 4-(9-((5-fluoropyridin-3-yl)oxy)-8,9-dihydro-7H-6-oxa-1,2,2a^1-triazabenzo[cd]azulen-4-yl)-N-(1-methyl-1H-pyrazol-5-yl)pyrimidin-2-amine] | 25.8
2 | Cc1cc(C[C@H]2CCOc3cc(-c4ccnc(Nc5ccnn5C)n4)cc4nnc2n34)on1 [(R) I-93, N-(1-methyl-1H-pyrazol-5-yl)-4-(9-((3-methylisoxazol-5-yl)methyl)-8,9-dihydro-7H-6-oxa-1,2,2a^1-triazabenzo[cd]azulen-4-yl)pyrimidin-2-amine] | < 0.02
3 | COc1cccc(C[C@H]2COc3cc(-c4ccnc(Nc5ccnn5C)c4)cc4nnc2n34)c1 [(R) I-97, 4-(3-(3-methoxybenzyl)-3,4-dihydro-5-oxa-1,2,2a^1-triazaacenaphthylen-7-yl)-N-(1-methyl-1H-pyrazol-5-yl)pyridin-2-amine] | < 0.02
4 | Cn1nccc1Nc1nccc(-c2cc3n4c(nnc4c2)[C@H](CCC(F)(F)F)CCO3)n1 [(R) I-102, N-(1-methyl-1H-pyrazol-5-yl)-4-(9-(3,3,3-trifluoropropyl)-8,9-dihydro-7H-6-oxa-1,2,2a^1-triazabenzo[cd]azulen-4-yl)pyrimidin-2-amine] | 1.7
5 | CCC[C@@H]1CCOc2cc(-c3ccnc(Nc4ccnn4C)c3)cc3nnc1n23 [(R) I-103, N-(1-methyl-1H-pyrazol-5-yl)-4-(9-propyl-8,9-dihydro-7H-6-oxa-1,2,2a^1-triazabenzo[cd]azulen-4-yl)pyridin-2-amine] | 2.77
6 | CCC[C@@H]1CCOc2cc(-c3ccnc(Nc4ccnn4C)n3)cc3nnc1n23 [(R) I-104, N-(1-methyl-1H-pyrazol-5-yl)-4-(9-propyl-8,9-dihydro-7H-6-oxa-1,2,2a^1-triazabenzo[cd]azulen-4-yl)pyrimidin-2-amine] | 2.3
7 | CC(C)C[C@@H]1CCOc2cc(-c3ccnc(Nc4ccnn4C)n3)cc3nnc1n23 [(R) I-107, 4-(9-isobutyl-8,9-dihydro-7H-6-oxa-1,2,2a^1-triazabenzo[cd]azulen-4-yl)-N-(1-methyl-1H-pyrazol-5-yl)pyrimidin-2-amine] | 1.85
8 | Cn1nccc1Nc1nccc(-c2cc3n4c(nnc4c2)C(Oc2ccc(F)cc2)CCO3)n1 [(R) I-108, 4-(9-(4-fluorophenoxy)-8,9-dihydro-7H-6-oxa-1,2,2a^1-triazabenzo[cd]azulen-4-yl)-N-(1-methyl-1H-pyrazol-5-yl)pyrimidin-2-amine] | 2.95
9 | Cc1csc(C[C@H]2CCOc3cc(-c4ccnc(Nc5ccnn5C)n4)cc4nnc2n34)n1 [(R) I-109, N-(1-methyl-1H-pyrazol-5-yl)-4-(9-((4-methylthiazol-2-yl)methyl)-8,9-dihydro-7H-6-oxa-1,2,2a^1-triazabenzo[cd]azulen-4-yl)pyrimidin-2-amine] | < 0.02
10 | Clc1cnn(C[C@H]2CCOc3cc(-c4ccnc(NC5CCOCC5)n4)cc4nnc2n34)c1 [(R) I-110, 4-(9-((4-chloro-1H-pyrazol-1-yl)methyl)-8,9-dihydro-7H-6-oxa-1,2,2a^1-triazabenzo[cd]azulen-4-yl)-N-(tetrahydro-2H-pyran-4-yl)pyrimidin-2-amine] | < 0.02
11 | Cn1nccc1Nc1nccc(-c2cc3n4c(nnc4c2)[C@H](Oc2ccc(F)c(F)c2)CCO3)n1 [(R) I-111, 4-(9-(3,4-difluorophenoxy)-8,9-dihydro-7H-6-oxa-1,2,2a^1-triazabenzo[cd]azulen-4-yl)-N-(1-methyl-1H-pyrazol-5-yl)pyrimidin-2-amine] | 2.6
12 | Cn1nccc1Nc1nccc(-c2cc3n4c(nnc4c2)[C@@H](c2ccccc2)CN3)n1 [(S) I-1, N-(1-methyl-1H-pyrazol-5-yl)-4-(3-phenyl-4,5-dihydro-3H-1,2,2a^1,5-tetraazaacenaphthylen-7-yl)pyrimidin-2-amine] | 1.1
13 | Cn1nccc1Nc1nccc(-c2cc3n4c(nnc4c2)[C@@H](Cc2ccccc2)CN3)n1 [(S) I-2, (S)-4-(3-benzyl-4,5-dihydro-3H-1,2,2a^1,5-tetraazaacenaphthylen-7-yl)-N-(1-methyl-1H-pyrazol-5-yl)pyrimidin-2-amine] | 0.02
14 | Cn1nccc1Nc1nccc(-c2cc3n4c(nnc4c2)[C@@H](Cc2ccc(Cl)cc2)CN3)n1 [(S) I-5, 4-(3-(4-chlorobenzyl)-4,5-dihydro-3H-1,2,2a^1,5-tetraazaacenaphthylen-7-yl)-N-(1-methyl-1H-pyrazol-5-yl)pyrimidin-2-amine] | < 0.02
15 | Cn1nccc1Nc1cc(-c2cc3n4c(nnc4c2)[C@@H](Cc2ccccc2)CN3)ccn1 [(S) I-7, 4-(3-benzyl-4,5-dihydro-3H-1,2,2a^1,5-tetraazaacenaphthylen-7-yl)-N-(1-methyl-1H-pyrazol-5-yl)pyridin-2-amine] | < 0.02
16 | Cn1nccc1Nc1cc(-c2cc3n4c(ncc4c2)[C@@H](Cc2ccc(Cl)cc2)CN3)ccn1 [(S) I-8, 4-(3-(4-chlorobenzyl)-4,5-dihydro-3H-1,2,2a^1,5-tetraazaacenaphthylen-7-yl)-N-(1-methyl-1H-pyrazol-5-yl)pyridin-2-amine] | < 0.02
17 | CN1C[C@H](Cc2ccccc2)c2nnc3cc(-c4ccnc(Nc5ccnn5C)n4)cc1n23 [(S) I-9, 4-(3-benzyl-5-methyl-4,5-dihydro-3H-1,2,2a^1,5-tetraazaacenaphthylen-7-yl)-N-(1-methyl-1H-pyrazol-5-yl)pyrimidin-2-amine] | < 0.02
18 | CC(C)C[C@H]1CNc2cc(-c3ccnc(Nc4ccnn4C)n3)cc3nnc1n23 [(S) I-10, 4-(3-isobutyl-4,5-dihydro-3H-1,2,2a^1,5-tetraazaacenaphthylen-7-yl)-N-(1-methyl-1H-pyrazol-5-yl)pyrimidin-2-amine] | < 0.02
19 | COc1ccc(C[C@H]2CNc3cc(-c4ccnc(Nc5ccnn5C)n4)cc4nnc2n34)cc1 [(S) I-11, 4-(3-(4-methoxybenzyl)-4,5-dihydro-3H-1,2,2a^1,5-tetraazaacenaphthylen-7-yl)-N-(1-methyl-1H-pyrazol-5-yl)pyrimidin-2-amine] | < 0.02
20 | COc1ccc(C[C@H]2CNc3cc(-c4ccnc(Nc5ccnn5C)n4)cc4nnc2n34)cc1F [(S) I-12, 4-(3-(3-fluoro-4-methoxybenzyl)-4,5-dihydro-3H-1,2,2a^1,5-tetraazaacenaphthylen-7-yl)-N-(1-methyl-1H-pyrazol-5-yl)pyrimidin-2-amine] | < 0.02
21 | Cn1nccc1Nc1nccc(-c2cc3n4c(nnc4c2)[C@@H](Cc2ccc(Cl)c(F)c2)CN3)n1 [(S) I-14, 4-(3-(4-chloro-3-fluorobenzyl)-4,5-dihydro-3H-1,2,2a^1,5-tetraazaacenaphthylen-7-yl)-N-(1-methyl-1H-pyrazol-5-yl)pyrimidin-2-amine] | < 0.02
22 | Cn1nccc1Nc1nccc(-c2cc3n4c(nnc4c2)[C@H](Cc2ccccc2)CO3)n1 [(S) I-15, 4-(3-benzyl-3,4-dihydro-5-oxa-1,2,2a^1-triazaacenaphthylen-7-yl)-N-(1-methyl-1H-pyrazol-5-yl)pyrimidin-2-amine] | 2.24
23 | COc1ccc(C[C@H]2CN(C)c3cc(-c4ccnc(Nc5ccnn5C)c4)cc4nnc2n34)cc1 [(S) I-18, 4-(3-(4-methoxybenzyl)-5-methyl-4,5-dihydro-3H-1,2,2a^1,5-tetraazaacenaphthylen-7-yl)-N-(1-methyl-1H-pyrazol-5-yl)pyridin-2-amine] | 55.8
